In publication PMC7112222, “Investigation of pyrimidine nucleoside analogues as chemical probes to assess compound effects on the proliferation of Trypanosoma cruzi intracellular parasites” (PLoS Neglected Tropical Diseases, 2020):
Structures can show the parent of a compound that is named as a salt. Where two headings read alike, the source gives them in different places. Each block holds one compound with its values, some of them ahead of it.

Legend:
[1] = system: T. cruzi intracellular amastigotes; set-up: method as in PMID 27120069; conditions: treatment for 48 hours; cited from earlier work
3T3 cells = test: Image-based assay, effect on 3T3 host cells; type: cell-based; conditions: for Host cell 3T3 IC50 value 48 h: highest test concentration 183 μM
Procedure: (§1) Parasites and host cells were maintained as outlined previously. Briefly, host 3T3 fibroblasts (ATCC, CCL-92) were grown in RPMI medium (Thermo Fisher Scientific, USA) with no phenol red, supplemented with 10% FBS (Thermo Fisher Scientific, USA) and incubated at 37°C in 5% CO2. Host cells were harvested at 70% confluency and were split every 2–3 days in 175 cm^2 flasks. 3T3 cells were cultured up to passage 7 as contact inhibition was reduced or lost at higher passages. Prior to infection with T. cruzi trypomastigotes, host cells were seeded at 1.2 x 10^6 cells in 75 cm^2 or 4 x 10^5 cells in 25 cm^2 flasks and grown for 24 hours before parasite addition. Parasites were added at a multiplicity of infection (MOI) of 10:1 and incubated for 24 hours before non-infected trypomastigotes were washed off the host cell bed with PBS supplemented with Ca^2+ and Mg^2+ (Thermo Fisher Scientific, USA). Incubation was continued for a further 3 days, until tissue culture trypomastigotes began to egress from host cells. Egressed parasites were used for assays or to continue the infective life cycle in vitro.
[…] Briefly, 14-point serial dilutions of the compounds in 100% DMSO were prepared and then further diluted in sterile water at a ratio of 1:21 compound: water. Five microliters of the diluted compounds were added to wells of T. cruzi infected host cells, using a MiniTrak compound handling device (Perkin Elmer, USA) with final concentrations in the plate ranging from 183 μM to 4.6 x 10^−4 μM. All experiments were performed with two separate biological replicates.
Image analysis was performed with a script developed in Columbus software (CHEMICAL LABEL INCORPORATION SCRIPT). Control wells were also imaged at an increased, 60x magnification to show the distribution of staining and the structure of the parasites within host cells. Eight background control wells consisted of infected host cells, fixed and exposed to Hoechst and the click chemistry cocktail, without the addition of the chemical probe EdU. […] The percentage activity of compounds against parasite number / infected cells (identified with Hoechst) was calculated against a positive control of 12 μM of NFX for the parasite and 30 μM of PURO the host cells; and a negative control of 0.47% DMSO. All images taken were not modified and were taken on an Opera, confocal image-based reader.

[2] = system: T. cruzi intracellular amastigotes; test: Image-based assay of the number of T. cruzi infected cells (intracellular amastigotes in 3T3 host cells); type: cell-based, Trypanosoma cruzi; conditions: 2 and 4 hour exposures; 73 μM
[3] = system: T. cruzi intracellular amastigotes; test: as above; type: cell-based, Trypanosoma cruzi; conditions: for inhibition at 183 µM / IC50 / Emax: Trypanosoma cruzi
Procedure: as §1
The activity of the nucleoside analogues against T. cruzi intracellular amastigotes following 24, 48 hours exposure and compound wash off, was determined using image-based techniques as previously described. Briefly, 14-point serial dilutions of the compounds in 100% DMSO were prepared and then further diluted in sterile water at a ratio of 1:21 compound: water. Five microliters of the diluted compounds were added to wells of T. cruzi infected host cells, using a MiniTrak compound handling device (Perkin Elmer, USA) with final concentrations in the plate ranging from 183 μM to 4.6 x 10^−4 μM. All experiments were performed with two separate biological replicates.
IC50 values for inhibitory activity of both the nucleoside analogues tested as DNA probes and known inhibitors tested to determine their effect on replication of T. cruzi were calculated in GraphPad Prism 5, using sigmoidal dose response with variable slope. […] The p-value for difference in the % activity at Emax concentrations for compounds with known activity (EdU identified parasites, compared to Hoechst identified parasites) against T. cruzi was determined using GraphPad Prism 5, using an unpaired student’s t-test. […] The Emax for each compound was at least two data points in from the beginning of the plateau of activity in the IC50 curve, as previously described.

T. cruzi amastigote DNA = test: Incorporation of pyrimidine nucleoside analogues into T. cruzi amastigote DNA (click chemistry, colocalisation with Hoechst); type: cell-based, Trypanosoma cruzi
Procedure: T. cruzi infected 3T3 fibroblasts were initially exposed to nucleoside analogues for 48 hours at concentrations ranging from 73 μM to 1.8 x10^-4 μM. Host cell, parasite and compound additions were carried out as previously described. Cells were then stained using a click chemistry azide cocktail, followed by Hoechst to identify nuclear material, as previously reported. The freshly prepared azide cocktail consisted of a final concentration of 5 μM of Alexa Fluor 488 azide (Thermo Fisher Scientific, USA), 1 mM copper sulfate (Sigma Aldrich, USA) and 100 mM sodium ascorbate (Sigma Aldrich, USA), in DPBS. Wells were imaged on an Opera image-based reader (Perkin Elmer, USA) at 20x magnification with 405 nm (defined as Hoechst channel) and 488 nm (defined as Alexa 488 channel) lasers using filter sets/bandwidth (emission) of 450/50 nm and 540/75 nm, respectively. To determine nucleoside analogue incorporation into T. cruzi amastigote DNA, a script was developed utilising the Columbus (PerkinElmer, USA) image-based analysis and data handling platform (CHEMICAL LABEL INCORPORATION SCRIPT). Nucleoside analogues were also tested for DNA incorporation following 2, 4 and 24 hours exposure, at the same concentrations. All experiments were performed in duplicate. The colocalisation of nucleoside analogues and Hoechst (replicating parasites) at each time point (48, 4 and 2 hours) was compared using GraphPad Prism 5.
A CHEMICAL LABEL INCORPORATION SCRIPT developed in Columbus firstly identified Hoechst stained parasites within host cells by spot analysis, utilizing the same building block analysis as we had previously developed to determine T. cruzi infected cells. The physical definition of amastigote DNA was identified by Hoechst, with the only modification being that as there was no cytoplasmic marker, thus segmentation borders in the Hoechst channel were applied, which effectively separated host cells (Fig 2). Further building blocks were added to calculate the intensity of Alexa Fluor 488 within the spots identified by Hoechst, in infected cells. This script was first applied to images to determine the mean fluorescence intensity in the Alexa 488 channel of Hoechst identified parasites, without the addition of the chemical label. The mean plus three times the standard deviation of this intensity was used to define values above background, thus the minimum intensity above background required to identify parasite DNA which successfully incorporated the chemical label. An input box was incorporated into the script, in which this minimum intensity above background was entered. Parameters of the developed script, “CHEMICAL LABEL INCORPORATION” are shown in S1 Table.
• Number of T. cruzi amastigote infected cells (≥5 parasites per cell, identified with Hoechst). • Number of Hoechst identified T. cruzi parasites (in infected cells). • Number of parasites incorporating chemical label (T. cruzi parasites with Alexa 488 intensity above background, in infected cells). • % chemical label incorporation. Alexa 488 spots in infected cells (above background) NO / Hoechst spots in infected cells NO *100 = Percentage colocalisation; where NO = number of objects. • Number of host cells.

HEK293 cells = test: Redox-based assay to assess HEK293 viability; type: cell-based, human; conditions: 48 hours exposure; highest test concentration 87 μM; EdU value estimated, relative to Emax plateau of 57%
Procedure: To determine the effect of the nucleoside analogues against a replicating mammalian cell line, analogues were tested against HEK293 cells, utilising a REDOX-based metabolic assay to assess cell viability as previously described. […] Experiments were performed over two biological replicates.

[4] = system: T. cruzi intracellular amastigotes; test: Detection of T. cruzi replication following exposure to inhibitors (EdU incorporation vs Hoechst); type: cell-based, Trypanosoma cruzi; conditions: Trypanosoma cruzi; for IC50: 48 hours exposure, mean ± SD
Procedure: The addition of host cells, parasites and compounds were as described for the T. cruzi image based method previously reported. […] Addition of nuclear and cytoplasmic dyes was undertaken as previously reported and images captured on an Opera confocal image-based system at 20x magnification. Image analysis was performed with a script developed in Columbus software (CHEMICAL LABEL INCORPORATION SCRIPT). Control wells were also imaged at an increased, 60x magnification to show the distribution of staining and the structure of the parasites within host cells. Eight background control wells consisted of infected host cells, fixed and exposed to Hoechst and the click chemistry cocktail, without the addition of the chemical probe EdU. […] All images taken were not modified and were taken on an Opera, confocal image-based reader.

[5] = 24 hours exposure, highest test concentration 183 μM, read-out: T. cruzi 24 IC50 value
[6] = 24 hours exposure, read-out: T. cruzi 24 relative Emax (in brackets) (converted)
[7] = 48 hours incubation, highest test concentration 183 μM, read-out: T. cruzi 48 IC50 value
[8] = 48 hours incubation, read-out: T. cruzi 48 relative Emax (in brackets) (converted)

SMILES: CN1CCC[C@@H]1CCO[C@](C)(c1ccccc1)c1ccc(Cl)cc1 [CF, clemastine fumarate]
T. cruzi infected cells, identified with Hoechst, remaining [1]: 3%

SMILES: C#Cc1cn([C@H]2C[C@H](O)[C@@H](CO)O2)c(=O)nc1N [EdC, 5-ethynyl-2′-deoxy-cytidine]
activity against host cells after short exposure (3T3 cells; 2 and 4 hour exposures, 73 μM): less than 20%
Host cell 3T3 IC50 value 48 h (3T3 cells): NA (NA = ≤50% activity at the highest concentration tested and an IC50 value could not be determined)
activity against 3T3 cells in the image-based assay (3T3 cells; 48 hours): < 20%
activity against T. cruzi amastigote growth after short exposure [2]: less than 20%
SI (selectivity index to T. cruzi intracellular amastigotes in relation to HEK293 cells) ([3]; 48 hours exposure): > 26
inhibition at 183 µM ([3]; at 183 μM, 48 hours incubation, wash off, further 72 hours, read-out: T. cruzi Wash off percentage inhibition at the highest test concentration): 90%
IC50 [3, 5]: 12500 ± 2000 nM
Emax [3, 6]: 69%
IC50 [3, 7]: 7100 ± 3700 nM
Emax [3, 8]: 87%
% of parasites with incorporation (T. cruzi amastigote DNA; 2 hours, 37 μM): 71 ± 2.9%
% of parasites with incorporation (T. cruzi amastigote DNA; 4 hours, 7.3 μM): 84 ± 3.5%
incorporation into T. cruzi DNA following 48 hours incubation (in words) (T. cruzi amastigote DNA): incorporated
% of cells that incorporated the DNA chemical label (T. cruzi amastigote DNA; 48 hours, 0.73 μM): 89 ± 2.7%
HEK293 IC50 value (HEK293 cells): NA (NA = ≤50% activity at the highest concentration tested and an IC50 value could not be determined)

SMILES: C#Cc1cn([C@@H]2O[C@H](CO)[C@@H](O)[C@@H]2I)c(=O)[nH]c1=O [I-ara-EdU, (2′S)-2′-deoxy-5-ethynyl-2′-iodo-uridine]
Host cell 3T3 IC50 value 48 h (3T3 cells): NA (NA = ≤50% activity at the highest concentration tested and an IC50 value could not be determined)
T. cruzi 24 IC50 value ([3]; 24 hours exposure, highest test concentration 183 μM): NA (NA = ≤50% activity at the highest concentration tested and an IC50 value could not be determined)
T. cruzi Wash off IC50 value ([3]; 48 hours incubation, compound wash off, further 72 hours without compound, highest test concentration 183 μM): NA (NA = ≤50% activity at the highest concentration tested and an IC50 value could not be determined)
T. cruzi 48 IC50 value ([3]; 48 hours incubation, highest test concentration 183 μM): NA (NA = ≤50% activity at the highest concentration tested and an IC50 value could not be determined)
inhibition at 183 µM ([3]; 48 h, 183 μM, 48 hours incubation, read-out: inhibition of T. cruzi growth at highest test concentration): ≤ 50%
incorporation into T. cruzi DNA following 48 hours incubation (in words) (T. cruzi amastigote DNA): did not
incorporation (no incorporation observed) (T. cruzi amastigote DNA; 48 hours, concentrations up to a maximum of 73 μM): < 20%
HEK293 IC50 value (HEK293 cells): NA (NA = ≤50% activity at the highest concentration tested and an IC50 value could not be determined)

IC50 ([4]; then 0.37 μM EdU for 4 hours, number of EdU incorporating parasites, read-out: IC50 value Amastigotes (EdU)): 210 ± 1.8 nM
IC50 ([4]; number of Hoechst identified parasites in infected cells, read-out: IC50 value Amastigotes (Hoechst)): 320 ± 24 nM
SMILES: CC1CS(=O)(=O)CCN1/N=C/c1ccc([N+](=O)[O-])o1 (centres unmarked) [NFX, nifurtimox]
Host cell 3T3 IC50 value 48 h (3T3 cells): NA (NA = ≤50% activity at the highest concentration tested and an IC50 value could not be determined)
inhibition at 63 µM ([4]; 2 h, read-out: mean inhibition of incorporation of EdU into the parasite DNA): 57 ± 9.1%
SI (selectivity index to T. cruzi intracellular amastigotes in relation to HEK293 cells) ([3]; 48 hours exposure): > 143
IC50 ([3]; read-out: IC50 value of positive assay control in the 2 and 4 hour exposure experiment, control exposure for 48 hours): 1000 ± 101 nM
IC50 [3, 5]: 1720 ± 860 nM
Emax [3, 6]: 100%
IC50 ([3]; 48 hours exposure, well-established intracellular infection assay, mean ± SD, POSA value based on sub-optimal effect (Emax 75%), read-out: IC50 value Infected cells (Hoechst)): 800 ± 90 nM
IC50 ([3]; 48 hours incubation, compound wash off, further 72 hours without compound, highest test concentration 183 μM, read-out: T. cruzi Wash off IC50 value): 1410 ± 1080 nM
Emax ([3]; 48 hours incubation, wash off, further 72 hours without compound, read-out: T. cruzi Wash off relative Emax (in brackets) (converted)): 100%
IC50 [3, 7]: 970 ± 26 nM
Emax [3, 8]: 100%
HEK293 IC50 value (HEK293 cells): NA (NA = ≤50% activity at the highest concentration tested and an IC50 value could not be determined)
